How the values were obtained:
[1] = biological target: T1, KRas-mediated phosphorylation of ERK in H358 cells (Homo sapiens, UniProt P01116, G12C); assay: Inhibition of KRas-mediated phosphorylation of ERK (HTRF), H358 cells; format: cell-based; details: HTRF pERK, 3 h incubation
T1 construct: pERK HTRF read-out

[2] = biological target: T2, KRas WT (Homo sapiens, UniProt P01116); assay: KRas binding assay, TR-FRET displacement of Cy5 labelled tracer; details: 60-minute incubation at room temperature, 1% DMSO, pH 7.5
T2 construct: Biotinylated KRas (corresponding to amino acids 1-169, produced at Accelegan Inc.); biotin (biotinylated); purchased Accelegan Inc
Summary of the method: (§1)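 Compound competes with tracer for biotin-labelled KRas (amino acids 1-169) bound to terbium-streptavidin. Incubation runs 60 minutes at room temperature, final DMSO 1%. IC50 values derive from a 4-parameter fit.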

[3] = biological target: T3, KRas G12C (Homo sapiens, UniProt P01116, G12C); assay: as above; details: 60-minute incubation at room temperature, 1% DMSO, pH 7.5
T3 construct: Biotinylated KRas (corresponding to amino acids 1-169, produced at Accelegan Inc.); biotin (biotinylated); purchased Accelegan Inc
Summary of the method: as §1

[4] = biological target: T4, KRas G12S (Homo sapiens, UniProt P01116, G12S); assay: as above; details: 60-minute incubation at room temperature, 1% DMSO, pH 7.5
T4 construct: Biotinylated KRas (corresponding to amino acids 1-169, produced at Accelegan Inc.); biotin (biotinylated); purchased Accelegan Inc
Summary of the method: as §1

[5] = biological target: T5, KRas-mediated phosphorylation of ERK in A549 cells (Homo sapiens, UniProt P01116, G12S); assay: Inhibition of KRas-mediated phosphorylation of ERK (HTRF), A549 cells; format: cell-based; details: HTRF pERK, 3 h incubation
T5 construct: pERK HTRF read-out

[6] = biological target: T6, KRas-mediated phosphorylation of ERK in MKN1 cells (Homo sapiens, UniProt P01116); assay: Inhibition of KRas-mediated phosphorylation of ERK (HTRF), MKN1 cells; format: cell-based; details: MKN1 cells (KRas WT); HTRF pERK; 3 h incubation
T6 construct: pERK HTRF read-out
Procedure: Inhibition of KRas Phosphorylation of ERK (HTRF) by Exemplary Compounds of Formula (Ia) or (Ib)
Cisbio HTRF Advanced pERK Assay Catalog #64AERPEH • Cells: MKN1, PSN1 • Procedure: • 1. Day 1: Seed 6,000 cells/well −25 μl/well in 384-well white solid bottom plate; RPM1_10% FBS. Incubate overnight at 37 °C/5% CO2. • 2.

T5 sequence (P01116 1-188 isoform P01116-2 G12S): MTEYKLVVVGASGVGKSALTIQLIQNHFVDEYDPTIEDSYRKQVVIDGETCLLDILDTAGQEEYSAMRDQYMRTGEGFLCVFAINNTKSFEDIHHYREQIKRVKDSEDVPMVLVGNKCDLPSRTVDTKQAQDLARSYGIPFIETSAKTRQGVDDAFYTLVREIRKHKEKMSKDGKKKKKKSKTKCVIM
T6 sequence (P01116 1-188 isoform P01116-2): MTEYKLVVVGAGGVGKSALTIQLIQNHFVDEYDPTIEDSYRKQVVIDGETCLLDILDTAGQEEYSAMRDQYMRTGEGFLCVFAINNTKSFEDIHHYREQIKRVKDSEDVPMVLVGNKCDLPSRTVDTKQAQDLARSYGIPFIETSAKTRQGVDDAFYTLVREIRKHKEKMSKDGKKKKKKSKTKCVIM
T1 sequence (P01116 1-188 isoform P01116-2 G12C): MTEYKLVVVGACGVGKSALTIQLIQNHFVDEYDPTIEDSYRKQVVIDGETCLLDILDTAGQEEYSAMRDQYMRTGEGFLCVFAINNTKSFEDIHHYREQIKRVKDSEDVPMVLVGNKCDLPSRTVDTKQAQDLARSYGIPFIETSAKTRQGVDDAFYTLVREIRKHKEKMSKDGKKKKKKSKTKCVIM
T4 sequence (P01116 1-169 isoform P01116-2 G12S): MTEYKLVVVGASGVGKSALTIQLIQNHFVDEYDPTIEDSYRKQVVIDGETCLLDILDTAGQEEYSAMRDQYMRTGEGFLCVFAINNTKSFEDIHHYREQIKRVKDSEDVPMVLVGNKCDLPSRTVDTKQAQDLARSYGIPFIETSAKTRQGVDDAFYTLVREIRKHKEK
T3 sequence (P01116 1-169 isoform P01116-2 G12C): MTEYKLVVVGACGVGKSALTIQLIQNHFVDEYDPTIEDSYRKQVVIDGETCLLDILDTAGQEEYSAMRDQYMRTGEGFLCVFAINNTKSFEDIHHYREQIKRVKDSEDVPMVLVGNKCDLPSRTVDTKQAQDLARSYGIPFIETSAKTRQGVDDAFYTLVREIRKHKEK
T2 sequence (P01116 1-169 isoform P01116-2): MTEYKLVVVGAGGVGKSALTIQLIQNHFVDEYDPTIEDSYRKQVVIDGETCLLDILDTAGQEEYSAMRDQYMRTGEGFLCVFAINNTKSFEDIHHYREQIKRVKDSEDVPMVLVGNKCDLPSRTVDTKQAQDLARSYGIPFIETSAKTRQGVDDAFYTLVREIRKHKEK

| IC50 [1] [nM] | IC50 [2] [nM] | IC50 [3] [nM] | IC50 [4] [nM] | IC50 [5] [nM] | IC50 [6] [nM] | Structure (SMILES) |
| --- | --- | --- | --- | --- | --- | --- |
| 1110 | 9 | 2 | 4 | 227 | 1250 | Cc1ccn(C(=O)CCNc2nc(OC[C@@]34CCCN3C[C@H](F)C4)nc3c(F)c(-c4ccc(F)c5sc(N)c(C#N)c45)c(Cl)cc23)n1 [Example 177, 2-amino-4-(6-chloro-8-fluoro-2-(((2R,7aS)-2-fluorotetrahydro-1H-pyrrolizin-7a(5H)-yl)methoxy)-4-((3-(3-methyl-1H-pyrazol-1-yl)-3-oxopropyl)amino)quinazolin-7-yl)-7-fluorobenzo[b]thiophene-3-carbonitrile] |
| 226 | 44 | 13 | 15 | 108 | 356 | Cc1ccn(C(=O)C2CC3CN(c4nc(OC[C@@]56CCCN5C[C@H](F)C6)nc5c(F)c(-c6ccc(F)c7sc(N)c(C#N)c67)c(Cl)cc45)CC32)n1 (stereo partly drawn) [Example 178, 2-amino-4-(6-chloro-8-fluoro-2-(((2R,7aS)-2-fluorotetrahydro-1H-pyrrolizin-7a(5H)-yl)methoxy)-4-(6-(3-methyl-1H-pyrazole-1-carbonyl)-3-azabicyclo[3.2.0]heptan-3-yl)quinazolin-7-yl)-7-fluorobenzo[b]thiophene-3-carbonitrile] |
| 232 | 67 | 26 | 4 | 27 | 441 | Cc1ccn(C(=O)C2C[C@@H]3CN(c4nc(OC[C@@]56CCCN5C[C@H](F)C6)nc5c(F)c(-c6ccc(F)c7sc(N)c(C#N)c67)c(Cl)cc45)C[C@@H]3C2)n1 (stereo partly drawn) [Example 180, 2-amino-4-(6-chloro-8-fluoro-2-(((2R,7aS)-2-fluorotetrahydro-1H-pyrrolizin-7a(5H)-yl)methoxy)-4-((3aR,6aS)-5-(3-methyl-1H-pyrazole-1-carbonyl)hexahydrocyclopenta[c]pyrrol-2 (1H)-yl)quinazolin-7-yl)-7-fluorobenzo[b]thiophene-3-carbonitrile] |
| 71 | 17 | 10 | 9 | 15 | 111 | Cc1ccn(C(=O)[C@@H]2C[C@H]2CNc2nc(OC[C@@]34CCCN3C[C@H](F)C4)nc3c(F)c(-c4ccc(F)c5sc(N)c(C#N)c45)c(Cl)cc23)n1 [Example 181, 2-amino-4-(6-chloro-8-fluoro-2-(((2R,7aS)-2-fluorotetrahydro-1H-pyrrolizin-7a(5H)-yl)methoxy)-4-((((trans)-2-(3-methyl-1H-pyrazole-1-carbonyl)cyclopropyl)methyl)amino)quinazolin-7-yl)-7-fluorobenzo[b]thiophene-3-carbonitrile] |
| 1120 | 32 | 136 | 156 | 2830 | 184 | N#Cc1c(N)sc2c(F)ccc(-c3c(Cl)cc4c(N5CCN(S(=O)(=O)n6cncn6)CC5)nc(OC[C@@]56CCCN5C[C@H](F)C6)nc4c3F)c12 [Example 186, 4-(4-(4-((1H-1,2,4-triazol-1-yl)sulfonyl)piperazin-1-yl)-6-chloro-8-fluoro-2-(((2R,7aS)-2-fluorotetrahydro-1H-pyrrolizin-7a(5H)-yl)methoxy)quinazolin-7-yl)-2-amino-7-fluorobenzo[b]thiophene-3-carbonitrile] |
| 9 | 26 | 8 | 13 | 39 | 140 | CN(C)c1ccn(C(=O)C2CCCN(c3nc(OC[C@@]45CCCN4C[C@H](F)C5)nc4c(F)c(-c5ccc(F)c6sc(N)c(C#N)c56)c(Cl)cc34)CC2)n1 (stereo partly drawn) [Example 188, 2-amino-4-(6-chloro-4-(4-(3-(dimethylamino)-1H-pyrazole-1-carbonyl)azepan-1-yl)-8-fluoro-2-(((2R,7aS)-2-fluorotetrahydro-1H-pyrrolizin-7a(5H)-yl)methoxy)quinazolin-7-yl)-7-fluorobenzo[b]thiophene-3-carbonitrile] |
| 43 | 24 | 13 | 8 | 27 | 199 | N#Cc1c(N)sc2c(F)ccc(-c3c(Cl)cc4c(N5CCCC(C(=O)n6ccc(C7CC7)n6)CC5)nc(OC[C@@]56CCCN5C[C@H](F)C6)nc4c3F)c12 (stereo partly drawn) [Example 189, 2-amino-4-(6-chloro-4-(4-(3-cyclopropyl-1H-pyrazole-1-carbonyl)azepan-1-yl)-8-fluoro-2-(((2R,7aS)-2-fluorotetrahydro-1H-pyrrolizin-7a(5H)-yl)methoxy)quinazolin-7-yl)-7-fluorobenzo[b]thiophene-3-carbonitrile] |

The next lines start with the compound.

| Structure (SMILES) | IC50 [1] [nM] | IC50 [2] [nM] | IC50 [3] [nM] | IC50 [4] [nM] | IC50 [5] [nM] | IC50 [6] [nM] |
| --- | --- | --- | --- | --- | --- | --- |
| CCc1c(F)ccc2cc(O)cc(-c3ncc4c(N5C[C@@H]6C[C@@H](C(=O)n7ccc(C)n7)[C@@H]6C5)nc(OC[C@@]56CCCN5C[C@H](F)C6)nc4c3F)c12 [Example 162, ((1R,5R,6R)-3-(7-(8-ethyl-7-fluoro-3-hydroxynaphthalen-1-yl)-8-fluoro-2-(((2R,7aS)-2-fluorotetrahydro-1H-pyrrolizin-7a(5H)-yl)methoxy)pyrido[4,3-d]pyrimidin-4-yl)-3-azabicyclo[3.2.0]heptan-6-yl)(3-methyl-1H-pyrazol-1-yl)methanone] | > 10000 | 1050 | 673 | 491 | 6480 | > 10000 |
| CCc1c(F)ccc2cc(O)cc(-c3ncc4c(N(CC)CCCC(=O)n5ccc(C)n5)nc(OC[C@@]56CCCN5C[C@H](F)C6)nc4c3F)c12 [Example 164, 4-(ethyl(7-(8-ethyl-7-fluoro-3-hydroxynaphthalen-1-yl)-8-fluoro-2-(((2R,7aS)-2-fluorotetrahydro-1H-pyrrolizin-7a(5H)-yl)methoxy)pyrido[4,3-d]pyrimidin-4-yl)amino)-1-(3-methyl-1H-pyrazol-1-yl) butan-1-one] | 999 | 103 | 5 | 8 | 50 | 2210 |
| CCc1c(F)ccc2cc(O)cc(-c3ncc4c(N(CCCC(=O)n5ccc(C)n5)C5CC5)nc(OC[C@@]56CCCN5C[C@H](F)C6)nc4c3F)c12 [Example 165, 4-(cyclopropyl(7-(8-ethyl-7-fluoro-3-hydroxynaphthalen-1-yl)-8-fluoro-2-(((2R,7aS)-2-fluorotetrahydro-1H-pyrrolizin-7a(5H)-yl)methoxy)pyrido[4,3-d]pyrimidin-4-yl)amino)-1-(3-methyl-1H-pyrazol-1-yl) butan-1-one] | 450 | 52 | 2 | 4 | 62 | 226 |
| CCc1c(F)ccc2cc(O)cc(-c3ncc4c(N5CCCC(C(=O)n6ccc(C)n6)CC5)nc(OCC5(CN(C)C)CC5)nc4c3F)c12 (stereo not drawn) [Example 167, (1-(2-((1-((dimethylamino)methyl)cyclopropyl)methoxy)-7-(8-ethyl-7-fluoro-3-hydroxynaphthalen-1-yl)-8-fluoropyrido[4,3-d]pyrimidin-4-yl)azepan-4-yl)(3-methyl-1H-pyrazol-1-yl)methanone] | 5100 | 528 | 94 | 29 | 326 | 3050 |
| Cc1ccn(C(=O)C2CCCN(c3nc(OC[C@@]45CCCN4C/C(=C\F)C5)nc4c(F)c(-c5ccc(F)c6sc(N)c(C#N)c56)c(Cl)cc34)CC2)n1 (stereo partly drawn) [Example 175, 2-amino-4-(6-chloro-8-fluoro-2-(((S,Z)-2-(fluoromethylene)tetrahydro-1H-pyrrolizin-7a(5H)-yl)methoxy)-4-(4-(3-methyl-1H-pyrazole-1-carbonyl)azepan-1-yl)quinazolin-7-yl)-7-fluorobenzo[b]thiophene-3-carbonitrile] | 11 | 16 | 9 | 8 | 6 | 177 |
| Cc1ccn(C(=O)CCN(C)c2nc(OC[C@@]34CCCN3C[C@H](F)C4)nc3c(F)c(-c4ccc(F)c5sc(N)c(C#N)c45)c(Cl)cc23)n1 [Example 176, 2-amino-4-(6-chloro-8-fluoro-2-(((2R,7aS)-2-fluorotetrahydro-1H-pyrrolizin-7a(5H)-yl)methoxy)-4-(methyl(3-(3-methyl-1H-pyrazol-1-yl)-3-oxopropyl)amino)quinazolin-7-yl)-7-fluorobenzo[b]thiophene-3-carbonitrile] | 295 | 12 | 3 | 5 | 388 | 250 |

Reference: patent US20260356856A1, “KRAS G12S AND G12C INHIBITORS” (MIRATI THERAPEUTICS, INC., priority 2023, published 2026)
